Test results: patent publication US10627415B2, “Compositions and methods for diagnosing, monitoring, and treating an autoimmune disease” (BOARD OF TRUSTEES OF MICHIGAN STATE UNIVERSITY, priority 2015, dated 2020)
Values belong to the molecule of their own block, whether it stands above or below them.

Experiments:
Format in all cases: cell-based, human
RBCs [1] = assay: 65Zn2+ binding to RBCs; settings: 20 nM 65Zn2+ and 20 nM C-peptide
From the text: In some embodiments, e.g., those in which RBCs are contacted with C-peptide and Zn^2+, Fe^2+, and/or Cr^3+, in the presence of albumin or other C-peptide binding facilitator, Zn^2+, Fe^2+, and/or Cr^3+ uptake by RBCs can be measured (e.g., as a proxy for C-peptide uptake). Methods for detecting or measuring Zn^2+ uptake by RBCs are known in the art and described in, e.g., Horn et al. (1995) J Physiol 489(1):73-80 (describing the use of radiolabeled Zn^2+).
Additional samples from healthy controls and MS patients were analyzed for C-peptide binding, ATP release (10 healthy control patients, 10 MS patients, and 12 MS patients with glybenclamide), and Zn^2+ binding (11 healthy control patients and 22 MS patients). […] Here, 20 nM ^65Zn^2+ was incubated with the RBCs and 20 nM C-peptide. It is noteworthy that in 32 of these 34 samples, MS ATP release, C-peptide and/or Zn^2+ binding, was higher than the control samples analyzed simultaneously with the MS samples.

RBCs of MS patients = assay: ATP release from RBCs in a constricted environment (luciferin/luciferase chemiluminescence); settings: RBCs of MS patients incubated with the inhibitor; 7% hematocrit, flow; MS without inhibitor 344.7±46.8 nM, healthy controls 132.1±14.1 nM
From the text: In some embodiments, detecting or measuring the amount of C-peptide uptake can be accomplished by measuring ATP release by the RBCs contacted with C-peptide (and, optionally, Zn^2+, Fe^2+, and/or Cr^3+). Methods for measuring ATP release by RBCs are known in the art and described in, e.g., Faris and Spence (2008) Analyst 133(5):678-682; Fischer et al. (2003) Analyst 128(9):1163-1168; Petruzzi et al. (1994) Metabalism 43(4):435-440; Richards et al. (2013) Am J Physiol Regul Integr Comp Physiol 305(11):R1331-1336; and Richards et al. (2014) Am J Physiol Regul Integr Comp Physiol 307(7):R862-868. For example, ATP can be measured using a luciferin-luciferase assay. […] The light emitted from the reaction with ATP can be quantified using a luminometer. […]
Experiments were performed to determine if RBCs from MS patients (n=19) release more ATP than blood from healthy control patients (n=10) or blood from MS patents combined with the ATP release inhibitor, glybenclamide (Gly; n=12) when subjected to a constricted environment. […] The portion of tubing having the polyimide coating removed was positioned over a light-excluding box containing a photomultiplier tube (PMT), such that chemiluminescence generated from the ATP contacting the detection facilitator was detected. […]

RBCs [2] = assay: Effect of C-peptide binding facilitator on C-peptide binding to RBCs (Example 2 protocol); settings: for C-peptide binding to RBCs, MS: n = 1
Protocol: Similar studies were performed using serum albumin from other species (human, porcine, chicken); all of these forms deliver C-peptide to RBCs and are useful in the methods described herein.
All samples were handled in an identical manner. Briefly, about 10 mL of blood was drawn from each donor; the RBCs were purified by centrifugation; and the RBCs were suspended in physiological salt solution (PSS). Then RBCs were combined with PSS (containing bovine serum albumin (BSA) as a C-peptide binding facilitator) and C-peptide to generate a mixture having a 7% hematocrit, 20 nM C-peptide, and 75 μM BSA (0.5%). The mixture was allowed to incubate for 2 hours at 37° C. Next, the samples were centrifuged to separate the cells from solution, the solution was diluted 1:50 with double distilled water, and the amount of C-peptide remaining in the solution was determined by ELISA. This provided a value corresponding to the moles of C-peptide bound to the RBCs. […] Whereas blood from the healthy controls bound an average of 1.99±0.32 pmoles C-peptide, blood from MS patients and OND patients bound averages of 3.51±0.59 pmoles of C-peptide and 2.23±0.51 pmoles of C-peptide, respectively. As shown by p values of less than 0.001, the increase in C-peptide binding relative to healthy controls and OND patients is significant.
Experiments were performed to determine the effect of C-peptide binding facilitator concentration on C-peptide binding by RBCs. The protocol of Experiment 2 was repeated, but with increasing BSA concentrations. […] Only a slight increase in C-peptide binding is realized.
Experiments were performed to test various potential C-peptide binding facilitators. The experiments were performed as described in example 2, but the C-peptide binding facilitator, BSA, was replaced with other albumins (porcine serum albumin and ovalbumin) or other proteins (leptin, casein, transferrin, and collagen).

[3] = other protein in place of BSA, n = 3
[4] = other albumin in place of BSA, n = 4

Molecule: [65Zn+2] [^65Zn^2+]
amount of 65Zn2+ able to bind with the RBCs (RBCs [1]; RBCs of MS patients): 3.61±0.22 picomoles
amount of 65Zn2+ able to bind with the RBCs (RBCs [1]; RBCs of healthy controls): 2.26±0.24 picomoles

Molecule: COc1ccc(Cl)cc1C(=O)NCCc1ccc(S(=O)(=O)NC(=O)NC2CCCCC2)cc1 [glybenclamide]
ATP release (RBCs of MS patients): 65.3 ± 11.6 nM

Molecule: bovine serum albumin [BSA]
C-peptide binding (RBCs [2]; [BSA] 0.5%): 2.14 ± 0.22 pmol
C-peptide binding (RBCs [2]; [BSA] 1.0%): 2.19 ± 0.16 pmol
C-peptide binding (RBCs [2]; [BSA] 2.0%): 2.26 ± 0.13 pmol

Molecule: leptin
C-peptide binding to RBCs, MS (RBCs [2]; other protein in place of BSA): 0.97 pmol
C-peptide binding to RBCs, Control (RBCs [2]; [3]): 0.74 ± 0.11 pmol

Molecule: ovalbumin
C-peptide binding to RBCs, MS (RBCs [2]; other albumin in place of BSA): 0.67 pmol
C-peptide binding to RBCs, Control (RBCs [2]; [4]): 0.39 ± 0.22 pmol

B1: porcine serum albumin (protein, UniProt P08835 25-607, looked up)
Albumin: DTYKSEIAHRFKDLGEQYFKGLVLIAFSQHLQQCPYEEHVKLVREVTEFAKTCVADESAENCDKSIHTLFGDKLCAIPSLREHYGDLADCCEKEEPERNECFLQHKNDNPDIPKLKPDPVALCADFQEDEQKFWGKYLYEIARRHPYFYAPELLYYAIIYKDVFSECCQAADKAACLLPKIEHLREKVLTSAAKQRLKCASIQKFGERAFKAWSLARLSQRFPKADFTEISKIVTDLAKVHKECCHGDLLECADDRADLAKYICENQDTISTKLKECCDKPLLEKSHCIAEAKRDELPADLNPLEHDFVEDKEVCKNYKEAKHVFLGTFLYEYSRRHPDYSVSLLLRIAKIYEATLEDCCAKEDPPACYATVFDKFQPLVDEPKNLIKQNCELFEKLGEYGFQNALIVRYTKKVPQVSTPTLVEVARKLGLVGSRCCKRPEEERLSCAEDYLSLVLNRLCVLHEKTPVSEKVTKCCTESLVNRRPCFSALTPDETYKPKEFVEGTFTFHADLCTLPEDEKQIKKQTALVELLKHKPHATEEQLRTVLGNFAAFVQKCCAAPDHEACFAVEGPKFVIEIRGILA
C-peptide binding to RBCs, MS (RBCs [2]; other albumin in place of BSA): 6.33 pmol
C-peptide binding to RBCs, Control (RBCs [2]; [4]): 4.01 ± 1.01 pmol

The remaining lines, values ahead:

C-peptide binding to RBCs, MS (RBCs [2]; other protein in place of BSA): No binding detected
C-peptide binding to RBCs, Control (RBCs [2]; [3]): No binding detected
Molecule: casein

C-peptide binding to RBCs, MS (RBCs [2]; other protein in place of BSA): 0.56 pmol
C-peptide binding to RBCs, Control (RBCs [2]; [3]): 0.21 ± 0.14 pmol
Molecule: collagen

C-peptide binding to RBCs, MS (RBCs [2]; other protein in place of BSA): No binding detected
C-peptide binding to RBCs, Control (RBCs [2]; [3]): No binding detected
Molecule: transferrin
